Reference: US10138233B2, “Imidazole compounds as modulators of FSHR and uses thereof” (Merck Patent GmbH, priority 2013, dated 2018)
Blank lines part the entries; values can stand above or below the compound they belong to.

Experiments:
FSHR = target: T1, FSHR (Homo sapiens, UniProt P23945); assay: EC50 of cyclic AMP production in CHO FSHR cells + EC20 FSH (Assay A); type: cell-based; conditions: CHO-FSHR-LUC cells, in presence of EC20 FSH, cAMP HTRF, 1 h 37° C.
T1 construct: expressed in transfected cells; host or cells: CHO cells, clone Cho-FSHR-LUC-1-1-43
T1 sequence (P23945 18-695): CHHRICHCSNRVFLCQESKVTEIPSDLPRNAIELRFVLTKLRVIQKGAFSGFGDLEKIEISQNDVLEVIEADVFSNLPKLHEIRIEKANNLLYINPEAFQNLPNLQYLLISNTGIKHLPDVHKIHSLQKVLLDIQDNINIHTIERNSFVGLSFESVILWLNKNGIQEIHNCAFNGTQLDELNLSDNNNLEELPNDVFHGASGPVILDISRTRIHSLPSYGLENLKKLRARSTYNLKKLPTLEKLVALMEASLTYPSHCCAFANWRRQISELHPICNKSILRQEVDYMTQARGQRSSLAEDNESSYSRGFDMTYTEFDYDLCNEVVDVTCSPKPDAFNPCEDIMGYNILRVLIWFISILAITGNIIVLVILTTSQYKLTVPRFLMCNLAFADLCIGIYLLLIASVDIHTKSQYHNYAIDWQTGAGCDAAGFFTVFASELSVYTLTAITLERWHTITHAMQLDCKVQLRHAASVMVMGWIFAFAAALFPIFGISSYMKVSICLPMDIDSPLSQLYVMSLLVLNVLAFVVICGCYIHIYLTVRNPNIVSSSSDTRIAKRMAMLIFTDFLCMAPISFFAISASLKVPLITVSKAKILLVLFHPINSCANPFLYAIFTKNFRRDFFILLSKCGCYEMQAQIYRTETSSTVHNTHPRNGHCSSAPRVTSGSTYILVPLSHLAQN

[1] = target: T2, follicle-stimulating hormone (FSH) receptor (Rattus norvegicus, UniProt P20395); assay: Rat Granulosa EC50 FSH (Assay B); type: cell-based; conditions: rat granulosa cells, per Yanofsky et al. 2006
T2 construct: Rat Granulosa EC50 FSH (Assay B); endogenous in cells; host or cells: rat granulosa cells
T2 sequence (P20395 18-692): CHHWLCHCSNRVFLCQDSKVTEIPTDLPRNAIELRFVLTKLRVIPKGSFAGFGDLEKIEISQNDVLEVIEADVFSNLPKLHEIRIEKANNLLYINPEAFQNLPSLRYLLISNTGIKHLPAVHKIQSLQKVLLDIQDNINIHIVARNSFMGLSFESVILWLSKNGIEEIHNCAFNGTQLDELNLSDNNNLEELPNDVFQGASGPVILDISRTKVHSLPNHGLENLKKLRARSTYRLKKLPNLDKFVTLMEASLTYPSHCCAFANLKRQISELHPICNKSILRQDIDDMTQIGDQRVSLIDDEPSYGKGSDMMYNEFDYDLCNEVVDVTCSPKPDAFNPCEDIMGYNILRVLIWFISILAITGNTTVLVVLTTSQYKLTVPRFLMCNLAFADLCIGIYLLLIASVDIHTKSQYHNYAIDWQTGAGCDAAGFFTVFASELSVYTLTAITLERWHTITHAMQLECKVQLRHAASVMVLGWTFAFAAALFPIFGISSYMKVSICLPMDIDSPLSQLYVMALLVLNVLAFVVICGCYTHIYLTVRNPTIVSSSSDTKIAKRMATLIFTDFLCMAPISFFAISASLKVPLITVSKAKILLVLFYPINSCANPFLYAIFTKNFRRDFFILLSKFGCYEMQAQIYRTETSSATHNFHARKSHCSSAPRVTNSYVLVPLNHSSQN

SMILES: COc1cc2c(cc1OC(C)C)-n1c(-c3ccsc3)nc(C(=O)N3CCCN(C(=O)C4CCC4)CC3)c1CC2 [Compound 6]
EC50 (FSHR): < 100 nM
EC50 [1]: < 100 nM

SMILES: COc1cc2c(cc1OC(C)C)-n1c(-c3cccs3)nc(C(=O)N3CCCN(C(=O)C4CCC4)CC3)c1CC2 [Compound 7]
EC50 (FSHR): < 100 nM
EC50 [1]: 100 to 1000 nM

SMILES: COc1cc2c(cc1OC(C)C)-n1c(-c3cccs3)nc(C(=O)N(C)C(C)(C)C)c1CC2 [Compound 11, 8-Isopropoxy-7-methoxy-1-thiophen-2-yl-4,5-dihydro-imidazo[1,5-a]quinoline-3-carboxylic acid tert-butyl-methyl-amide]
EC50 (FSHR): 100 to 1000 nM
EC50 [1]: > 5000 nM

SMILES: COc1cc2c(cc1CC(C)C)-n1c(-c3ccc(F)s3)nc(C(=O)N(C)C(C)(C)C)c1CC2 [Compound 21, 1-(5-Fluoro-thiophen-2-yl)-8-isobutyl-7-methoxy-4,5-dihydro-imidazo[1,5-a]quinoline-3-carboxylic acid tert-butyl-methyl-amide]
EC50 (FSHR): < 100 nM
EC50 [1]: 1000 to 5000 nM

SMILES: COc1cc2c(cc1CC(C)C)-n1c(-c3cccs3)nc(C(=O)N(C)CCN3CCOC3=O)c1CC2 [Compound 25, 8-Isobutyl-7-methoxy-1-thiophen-2-yl-4,5-dihydro-imidazo[1,5-a]quinoline-3-carboxylic acid methyl-[2-(2-oxo-oxazolidin-3-yl)-ethyl]-amide]
EC50 (FSHR): < 100 nM
EC50 [1]: 100 to 1000 nM

SMILES: [2H]C([2H])([2H])N(CCN(C(=O)c1nc(-c2cccs2)n2c1CCc1cc(OC)c(CC(C)C)cc1-2)C([2H])([2H])[2H])C(C)=O [Compound 31, 8-Isobutyl-7-methoxy-1-thiophen-2-yl-4,5-dihydro-imidazo[1,5-a]quinoline-3-carboxylic acid [2-(acetyl-methyl-d3-amino)-ethyl]-methyl-d3-amide]
EC50 (FSHR): 100 to 1000 nM
EC50 [1]: > 5000 nM

SMILES: [2H]C([2H])([2H])OCC(C)(C)N(C(=O)c1nc(-c2cccs2)n2c1CCc1cc(OC)c(CC(C)C)cc1-2)C([2H])([2H])[2H] [Compound 32, 8-Isobutyl-7-methoxy-1-thiophen-2-yl-4,5-dihydro-imidazo[1,5-a]quinoline-3-carboxylic acid (2-methoxy-d3-1,1-dimethyl-ethyl)-methyl-d3-amide]
EC50 (FSHR): < 100 nM
EC50 [1]: > 5000 nM

SMILES: COc1cc2c(cc1CC(C)C)-n1c(S(=O)(=O)C3CC3)nc(C(=O)N(C)C(C)(C)C)c1CC2 [Compound 34, 1-Cyclopropanesulfonyl-8-isobutyl-7-methoxy-4,5-dihydro-imidazo[1,5-a]quinoline-3-carboxylic acid tert-butyl-methyl-amide]
EC50 (FSHR): 100 to 1000 nM
EC50 [1]: 1000 to 5000 nM

SMILES: [2H]C([2H])([2H])N(C(=O)c1nc(-c2cccs2)n2c1CCc1cc(OC)c(-c3ccn(C)n3)cc1-2)C1(C)COC1 [Compound 130, 7-Methoxy-8-(1-methyl-1H-pyrazol-3-yl)-1-thiophen-2-yl-4,5-dihydro-imidazo[1,5-a]quinoline-3-carboxylic acid methyl-d3-(3-methyl-oxetan-3-yl)-amide]
EC50 (FSHR): 100 to 1000 nM

SMILES: COc1cc2c(cc1-c1n[nH]c(=O)o1)-n1c(-c3cccs3)nc(C(=O)N(C)C(C)(C)C)c1CC2 [Compound 132, 7-Methoxy-8-(5-oxo-4,5-dihydro-[1,3,4]oxadiazol-2-yl)-1-thiophen-2-yl-4,5-dihydro-imidazo[1,5-a]quinoline-3-carboxylic acid tert-butyl-methyl-amide]
EC50 (FSHR): 100 to 1000 nM

SMILES: COc1cc2c(cc1-c1n[nH]c(=S)o1)-n1c(-c3cccs3)nc(C(=O)N(C)C(C)(C)C)c1CC2 [Compound 133, 7-Methoxy-1-thiophen-2-yl-8-(5-thioxo-4,5-dihydro-[1,3,4]oxadiazol-2-yl)-4,5-dihydro-imidazo[1,5-a]quinoline-3-carboxylic acid tert-butyl-methyl-amide]
EC50 (FSHR): < 100 nM

SMILES: COc1cc2c(cc1OC(C)C)-n1c(-c3cccs3)nc(C(=O)NC3(CO)COC3)c1CO2 [Compound 137, 8-Isopropoxy-7-methoxy-1-thiophen-2-yl-4H-5-oxa-2,9b-diaza-cyclopenta[a]naphthalene-3-carboxylic acid (3-hydroxymethyl-oxetan-3-yl)-amide]
EC50 (FSHR): 1000 to 5000 nM

SMILES: COc1cc2c(cc1OC(C)C)-n1c(-c3cccs3)nc(C(=O)NC3(C)COC3)c1CO2 [Compound 138, 8-Isopropoxy-7-methoxy-1-thiophen-2-yl-4H-5-oxa-2,9b-diaza-cyclopenta[a]naphthalene-3-carboxylic acid (3-methyl-oxetan-3-yl)-amide]
EC50 (FSHR): 1000 to 5000 nM

SMILES: COc1cc2c(cc1CC(C)C)-n1c(-c3sccc3C)nc(C(=O)N(C)C(C)(C)C)c1CC2 [Compound 146, 8-Isobutyl-7-methoxy-1-(3-methyl-thiophen-2-yl)-4,5-dihydro-imidazo[1,5-a]quinoline-3-carboxylic acid tert-butyl-methyl-amide]
EC50 (FSHR): 100 to 1000 nM

Further lines, results first:

EC50 (FSHR): < 100 nM
EC50 [1]: 100 to 1000 nM
SMILES: COc1cc2c(cc1CC(C)C)-n1c(-c3ccc(F)s3)nc(C(=O)N3CCOCC3(C)C)c1CC2 [Compound 19, (3,3-Dimethyl-morpholin-4-yl)-[1-(5-fluoro-thiophen-2-yl)-8-isobutyl-7-methoxy-4,5-dihydro-imidazo[1,5-a]quinolin-3-yl]-methanone]

EC50 (FSHR): 100 to 1000 nM
EC50 [1]: > 5000 nM
SMILES: COc1cc2c(cc1CC(C)C)-n1c(-c3ccc[nH]3)nc(C(=O)N3CCOCC3(C)C)c1CC2 [Compound 30, (3,3-Dimethyl-morpholin-4-yl)-[8-isobutyl-7-methoxy-1-(1H-pyrrol-2-yl)-4,5-dihydro-imidazo[1,5-a]quinolin-3-yl]-methanone]

EC50 (FSHR): 100 to 1000 nM
EC50 [1]: > 5000 nM
SMILES: COc1cc2c(cc1OC(C)C)-n1c(-c3cccn3C)nc(C(=O)N3CCOCC3(C)C)c1CC2 [Compound 38]

EC50 (FSHR): < 100 nM
EC50 [1]: 1000 to 5000 nM
SMILES: [2H]C([2H])([2H])Oc1cc2c(cc1CC(C)C)-n1c(-c3ccsc3)nc(C(=O)N3CCOCC3(C)C)c1CC2 [Compound 41, (3,3-Dimethyl-morpholin-4-yl)-(8-isobutyl-7-methoxy-d3-1-thiophen-3-yl-4,5-dihydro-imidazo[1,5-a]quinolin-3-yl)-methanone]

EC50 (FSHR): 100 to 1000 nM
SMILES: COc1cc2c(cc1OC(C)C)-n1c(-c3cc(F)ccc3F)nc(C(=O)N3CCOCC3(C)C)c1CC2 [Compound 127]

EC50 (FSHR): 1000 to 5000 nM
SMILES: COc1ccc(-c2nc(C(=O)N3CCOCC3(C)C)c3n2-c2cc(OC(C)C)c(OC)cc2CC3)c(C)c1 [Compound 128]

EC50 (FSHR): 100 to 1000 nM
SMILES: COc1cc2c(cc1OC(C)C)-n1c(-c3cc(C)sc3C)nc(C(=O)N3CCOCC3(C)C)c1CC2 [Compound 129]

EC50 (FSHR): > 5000 nM
SMILES: COc1cc2c(cc1OC(C)C)-n1c(C3=CCNCC3)nc(C(=O)N3CCOCC3(C)C)c1CC2 [Compound 131]

EC50 (FSHR): 100 to 1000 nM
SMILES: COc1cc2c(cc1OC(C)C)-n1c(-c3cccc4c3OCO4)nc(C(=O)N3CCOCC3(C)C)c1CC2 [Compound 141]

EC50 (FSHR): 100 to 1000 nM
SMILES: COc1cc2c(cc1OC(C)C)-n1c(-c3cccc(Cl)c3Cl)nc(C(=O)N3CCOCC3(C)C)c1CC2 [Compound 142]

EC50 (FSHR): 1000 to 5000 nM
SMILES: COC(=O)c1nc(C(=O)N2CCOCC2(C)C)c2n1-c1cc(OC(C)C)c(OC)cc1CC2 [Compound 144, 3-(3,3-Dimethyl-morpholine-4-carbonyl)-8-isopropoxy-7-methoxy-4,5-dihydro-imidazo[1,5-a]quinoline-1-carboxylic acid methyl ester]

EC50 (FSHR): > 5000 nM
SMILES: COc1cc2c(cc1OC(C)C)-n1c(C#N)nc(C(=O)N3CCOCC3(C)C)c1CC2 [Compound 145, 3-(3,3-Dimethyl-morpholine-4-carbonyl)-8-isopropoxy-7-methoxy-4,5-dihydro-imidazo[1,5-a]quinoline-1-carbonitrile]

EC50 (FSHR): 100 to 1000 nM
SMILES: COc1cc2c(cc1-c1ccn(C)n1)-n1c(-c3ccc(C)s3)nc(C(=O)N3CCOCC3(C)C)c1CC2 [Compound 147, (3,3-dimethylmorpholino)(7-methoxy-8-(1-methyl-1H-pyrazol-3-yl)-1-(5-methylthiophen-2-yl)-4,5-dihydroimidazo[1,5-a]quinolin-3-yl)methanone]
